In PubChem BioAssay AID1259407 (Chemical Carcinogenesis Research Information System (CCRIS), 2018):
The source made the active and inactive calls. The rule behind the calls is not given here.

Tested on: CCRIS mutagenicity, Ames/micronucleus/aberration tests
Assay: CCRIS mutagenicity studies
[1] = Test System: AMES SALMONELLA TYPHIMURIUM, Strain/Indicator: TA98, Metabolic Activation: NONE, Method: STANDARD PLATE
[2] = Test System: AMES SALMONELLA TYPHIMURIUM, Strain/Indicator: TA98, Metabolic Activation: RAT, LIVER, S-9, AROCLOR 1254, Method: STANDARD PLATE
[3] = Test System: AMES SALMONELLA TYPHIMURIUM, Strain/Indicator: TA100, Metabolic Activation: NONE
[4] = Test System: AMES SALMONELLA TYPHIMURIUM, Strain/Indicator: TA100, Metabolic Activation: NONE, Method: STANDARD PLATE
[5] = Test System: AMES SALMONELLA TYPHIMURIUM, Strain/Indicator: TA100, Metabolic Activation: RAT, LIVER, S-9, AROCLOR 1254, Method: STANDARD PLATE
[6] = Test System: AMES SALMONELLA TYPHIMURIUM, Strain/Indicator: TA1535, Metabolic Activation: NONE, Method: STANDARD PLATE
[7] = Test System: AMES SALMONELLA TYPHIMURIUM, Strain/Indicator: TA1535, Metabolic Activation: RAT, LIVER, S-9, AROCLOR 1254, Method: STANDARD PLATE
[8] = Test System: AMES SALMONELLA TYPHIMURIUM, Strain/Indicator: TA1538, Metabolic Activation: NONE, Method: STANDARD PLATE
[9] = Test System: AMES SALMONELLA TYPHIMURIUM, Strain/Indicator: TA1538, Metabolic Activation: RAT, LIVER, S-9, AROCLOR 1254, Method: STANDARD PLATE
[10] = Test System: AMES SALMONELLA TYPHIMURIUM, Strain/Indicator: TA98, Metabolic Activation: NONE, Method: PREINCUBATION
[11] = Test System: AMES SALMONELLA TYPHIMURIUM, Strain/Indicator: TA100, Metabolic Activation: NONE, Method: PREINCUBATION
[12] = Test System: AMES SALMONELLA TYPHIMURIUM, Strain/Indicator: TA104, Metabolic Activation: NONE, Method: PREINCUBATION

Measured: mutagenic call

C/C=C/c1cc(OC)c(OC)cc1OC
active: Test System: AMES SALMONELLA TYPHIMURIUM, Strain/Indicator: TA100, Metabolic Activation: S-9 active; positive | [6] active; positive | Test System: UDS RAT HEPATOCYTES, Strain/Indicator: THY INCORP, Metabolic Activation: NONE, Method: LIQUID SCINTILLATION COUNTING active; positive
inactive: Test System: AMES SALMONELLA TYPHIMURIUM, Strain/Indicator: TA97, Metabolic Activation: NONE, Method: STANDARD PLATE inactive; negative | Test System: AMES SALMONELLA TYPHIMURIUM, Strain/Indicator: TA97, Metabolic Activation: RAT, LIVER, S-9, AROCLOR 1254, Method: STANDARD PLATE inactive; negative | [1] inactive; negative | [2] inactive; negative | [3] inactive; negative | [4] inactive; negative | [5] inactive; negative | [7] inactive; negative | Test System: AMES SALMONELLA TYPHIMURIUM, Strain/Indicator: TA1537, Metabolic Activation: NONE, Method: STANDARD PLATE inactive; negative | Test System: AMES SALMONELLA TYPHIMURIUM, Strain/Indicator: TA1537, Metabolic Activation: RAT, LIVER, S-9, AROCLOR 1254, Method: STANDARD PLATE inactive; negative | [8] inactive; negative | [9] inactive; negative

BrCCCCBr
inactive: [10] inactive; negative | Test System: AMES SALMONELLA TYPHIMURIUM, Strain/Indicator: TA98, Metabolic Activation: RAT LIVER S-9, PHENOBARBITAL AND BETA-NAPHTHOFLAVONE, Method: PREINCUBATION inactive; negative | [11] inactive; negative | Test System: AMES SALMONELLA TYPHIMURIUM, Strain/Indicator: TA1537, Metabolic Activation: NONE, Method: PREINCUBATION inactive; negative | Test System: AMES SALMONELLA TYPHIMURIUM, Strain/Indicator: TA1537, Metabolic Activation: RAT LIVER S-9, PHENOBARBITAL AND BETA-NAPHTHOFLAVONE, Method: PREINCUBATION inactive; negative
active: End Point: IN VITRO CHROMOSOMAL ABERRATIONS, Test System: CHL CELLS, Metabolic Activation: RAT, LIVER, S-9, SODIUM PHENOBARBITAL AND 5,6-BENZOFLAVONE active; positive (structural changes); authors report equivocal results for ploidy chang | Test System: AMES SALMONELLA TYPHIMURIUM, Strain/Indicator: TA1535, Metabolic Activation: NONE, Method: PREINCUBATION active; positive | Test System: AMES SALMONELLA TYPHIMURIUM, Strain/Indicator: TA1535, Metabolic Activation: RAT LIVER S-9, PHENOBARBITAL AND BETA-NAPHTHOFLAVONE, Method: PREINCUBATION active; positive | Test System: E.COLI, Strain/Indicator: WP2UVRA, Metabolic Activation: NONE, Method: PREINCUBATION active; positive | Test System: E.COLI, Strain/Indicator: WP2UVRA, Metabolic Activation: RAT LIVER S-9, PHENOBARBITAL AND BETA-NAPHTHOFLAVONE, Method: PREINCUBATION active; positive

CN(C)C(=S)SSC(=S)N(C)C
inactive: End Point: IN VIVO MICRONUCLEUS, Test System: BONE MARROW POLYCHROMATIC ERYTHROCYTES, Species: MOUSE, Strain/Sex: SWISS/MALE, FEMALE, Route: IP 2X IN AQUEOUS SUSPENSION WITHIN 24 HR inactive; negative | Test System: AMES SALMONELLA TYPHIMURIUM, Strain/Indicator: TA98, Metabolic Activation: S-9, Method: STANDARD PLATE inactive; negative | Test System: AMES SALMONELLA TYPHIMURIUM, Strain/Indicator: TA102, Metabolic Activation: NONE, Method: STANDARD PLATE inactive; negative | Test System: AMES SALMONELLA TYPHIMURIUM, Strain/Indicator: TA102, Metabolic Activation: RAT, LIVER, S-9, AROCLOR 1254, Method: STANDARD PLATE inactive; negative | Test System: AMES SALMONELLA TYPHIMURIUM, Strain/Indicator: TA104, Metabolic Activation: NONE, Method: STANDARD PLATE inactive; negative | Test System: AMES SALMONELLA TYPHIMURIUM, Strain/Indicator: TA104, Metabolic Activation: RAT, LIVER, S-9, AROCLOR 1254, Method: STANDARD PLATE inactive; negative
active: [2] active; positive | [5] active; positive | Test System: AMES SALMONELLA TYPHIMURIUM, Strain/Indicator: TA100, Metabolic Activation: S-9, Method: STANDARD PLATE active; positive | [6] active; positive | [7] active; positive | [8] active; positive | [9] active; positive | Test System: CHINESE HAMSTER V-79, Strain/Indicator: V-79 (HGPRT)/6-THIOGUANINE, Metabolic Activation: NONE, Method: RESPREADING active; positive

CCC(C)OS(C)(=O)=O (stereo not drawn)
active: End Point: IN VITRO MICRONUCLEUS, Test System: MOUSE LYMPHOMA L5178Y CELLS, Metabolic Activation: NONE active; positive | End Point: IN VITRO MICRONUCLEUS, Test System: MOUSE LYMPHOMA L5178Y CELLS, Metabolic Activation: RAT, LIVER, S-9 active; positive | [1] active; positive | Test System: AMES SALMONELLA TYPHIMURIUM, Strain/Indicator: TA98, Metabolic Activation: RAT, LIVER, S-9, Method: STANDARD PLATE active; positive | [4] active; positive | Test System: AMES SALMONELLA TYPHIMURIUM, Strain/Indicator: TA100, Metabolic Activation: RAT, LIVER, S-9, Method: STANDARD PLATE active; positive | [6] active; positive | Test System: CHINESE HAMSTER V-79, Strain/Indicator: V-79/6-THIOGUANINE, Metabolic Activation: NONE active; positive

C[N+](C)(C)NCCC(=O)[O-]
inactive: Test System: AMES SALMONELLA TYPHIMURIUM, Strain/Indicator: TA98, Metabolic Activation: NONE inactive; negative | Test System: AMES SALMONELLA TYPHIMURIUM, Strain/Indicator: TA98, Metabolic Activation: RAT LIVER S-9, AROCLOR 1254 inactive; negative | [3] inactive; negative | Test System: AMES SALMONELLA TYPHIMURIUM, Strain/Indicator: TA100, Metabolic Activation: RAT LIVER S-9, AROCLOR 1254 inactive; negative

C/C(C(=O)O)=C(\Cl)C(=O)O
inactive: [10] inactive; negative | [11] inactive; negative | [12] inactive; negative

CNC(=O)NC
inactive: [10] inactive; negative | Test System: AMES SALMONELLA TYPHIMURIUM, Strain/Indicator: TA98, Metabolic Activation: RAT, LIVER, S-9, AROCLOR 1254 (5, 15 OR 30%), Method: PREINCUBATION inactive; negative | [11] inactive; negative | Test System: AMES SALMONELLA TYPHIMURIUM, Strain/Indicator: TA100, Metabolic Activation: RAT, LIVER, S-9, AROCLOR 1254 (5, 15 OR 30%), Method: PREINCUBATION inactive; negative | [12] inactive; negative | Test System: AMES SALMONELLA TYPHIMURIUM, Strain/Indicator: TA104, Metabolic Activation: RAT, LIVER, S-9, AROCLOR 1254 (5, 15 OR 30%), Method: PREINCUBATION inactive; negative | Test System: MOUSE LYMPHOMA, Strain/Indicator: L5178Y (TK+/TK-), Metabolic Activation: NONE, Method: SUSPENSION/PLATE inactive; negative | Test System: MOUSE LYMPHOMA, Strain/Indicator: L5178Y (TK+/TK-), Metabolic Activation: RAT, LIVER, S-9, AROCLOR 1254, Method: SUSPENSION/PLATE inactive; negative

CCCN(CC(C)O)N=O (stereo not drawn)
active: Test System: CHINESE HAMSTER V-79, Strain/Indicator: V-79/OUABAIN, Metabolic Activation: HAMSTER, HEPATOCYTES, Method: CELL-MEDIATED active; positive
